Our source for the IC50 values is US4895973A, “Substituted glutaric acid lactones in the treatment of hyperlipidemia” (G. D. Searle & Company, priority 1988, dated 1990).

This assay has as its target T1, rat liver microsomal HMGCoA reductase (Rattus norvegicus, UniProt P51639).
T1 construct: rat liver microsomal HMGCoA reductase; from tissue; host or cells: rat liver microsomes
T1 sequence (P51639 1-887): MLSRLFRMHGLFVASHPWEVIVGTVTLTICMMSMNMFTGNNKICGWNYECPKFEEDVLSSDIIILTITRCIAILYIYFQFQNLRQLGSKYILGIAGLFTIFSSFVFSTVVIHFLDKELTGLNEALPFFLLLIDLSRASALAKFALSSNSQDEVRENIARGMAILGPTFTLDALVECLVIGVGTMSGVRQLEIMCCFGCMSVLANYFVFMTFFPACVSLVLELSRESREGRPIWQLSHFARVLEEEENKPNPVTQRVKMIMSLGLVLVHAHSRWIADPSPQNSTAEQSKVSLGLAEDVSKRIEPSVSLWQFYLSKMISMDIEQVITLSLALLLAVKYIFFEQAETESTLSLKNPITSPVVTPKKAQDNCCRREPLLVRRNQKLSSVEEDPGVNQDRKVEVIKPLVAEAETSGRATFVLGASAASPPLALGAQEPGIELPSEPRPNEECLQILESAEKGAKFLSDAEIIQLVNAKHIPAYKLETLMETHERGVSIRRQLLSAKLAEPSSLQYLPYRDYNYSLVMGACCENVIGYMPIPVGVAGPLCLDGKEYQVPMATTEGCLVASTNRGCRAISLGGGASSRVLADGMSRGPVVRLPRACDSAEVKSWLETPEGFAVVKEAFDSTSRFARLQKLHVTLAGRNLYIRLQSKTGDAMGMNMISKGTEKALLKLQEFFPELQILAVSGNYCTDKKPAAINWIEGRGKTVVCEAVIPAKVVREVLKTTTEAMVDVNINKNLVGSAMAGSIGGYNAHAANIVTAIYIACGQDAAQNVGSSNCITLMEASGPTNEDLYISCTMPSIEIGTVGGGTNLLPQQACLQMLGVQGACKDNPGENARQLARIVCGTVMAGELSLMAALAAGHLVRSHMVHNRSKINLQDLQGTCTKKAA
In words: in vitro inhibition of rat liver microsomal HMGCoA reductase. The format is biochemical. The conditions noted are these: 40 μM 14C-HMGCoA, 15 min at 37° C., pH7.2. As to the method: The IC50 is defined as the concentration required to inhibit the enzyme by 50% of control.
Triplicate samples are preincubated for 15 min. at 37° C. in a volume of 1 ml. […] Mevalonic acid is extracted with ether and the % ^14 C-HMGCoA incorporation determined for concurrent control and test reaction systems. Testing is done (first) with a range finding assay followed by a 4 or 5 point assay to find the IC50 value.

Usually IC50 stands for the concentration needed to halve the response being measured. `CC[C@H](C)C(=O)O[C@H]1CCC=C2C=C[C@H](C)[C@H](CC[C@@H]3C[C@@H](O)CC(=O)O3)[C@H]21` [Compactin] displayed a half-inhibitory concentration (IC50) of 1000 nM. In other words, the single-digit micromolar range.
